Assay results from ChEMBL document CHEMBL1147301, “Studies on inhibitors of skin-tumor promotion. Inhibitory effects of triterpenes from Cochlospermum tinctorium on Epstein-Barr virus activation” (J Nat Prod, 1989).

Columns and labels:
Raji [1] = experiment: Inhibition of 12-O-tetradecanoylphorbol-13-acetate-induced EBV-early antigen activation in human Raji cells assessed as early antigen activation at 4 mM ratio relative to TPA; type: cell-based; parameters: scale not given: the % may be the effect or the level left; details: human gammaherpesvirus 4
Raji [2] = experiment: Inhibition of EBV-early antigen activation in human Raji cells assessed as early antigen activation at 4 mM; type: cell-based; parameters: scale not given: the % may be the effect or the level left; details: human gammaherpesvirus 4

Compound: CCCC(=O)O
- Activity (Raji [1]): 34.5%
- Activity (Raji [2]): 0.1%
